Experimental data from doi:10.1101/2025.11.04.686469, “Discovery of Host-Directed Small Molecules with Broad Anti-Leishmanial Efficacy” (bioRxiv, 2025).

Legend:
[1] = system: intracellular L. donovani amastigotes; assay: Luminescent-based evaluation of intracellular anti-leishmanial activity in THP-1 macrophages; type: cell-based, Leishmania donovani; conditions: intracellular Leishmania donovani in THP1 macrophages, luminescence assay (Supplemental Table 2); read-out: Lum IC50
Protocol: Luminescent strains, L. donovani LV82 expressing firefly luciferase (a kind gift from Dr. Abhay Satoskar, Ohio State University) and L. mexicana (NR-51210, ATCC) expressing renilla luciferase were used to evaluate the effect of the compounds in intracellular and extracellular conditions. Wild-type L. donovani LV82 (ATCC) were used for Giemsa staining based experiments. All parasites were cultured at 25°C and 5% CO2 in M199 media (Corning) supplemented with 10% FBS, 1% penicillin/streptomycin, and hemin (0.01 mg/mL), and used in experiments up to passage 15.
THP-1 cells were seeded in a 96 well plate (25,000 cells/well) overnight then differentiated with 150 nM phorbol 12-myristate 13-acetate (PMA) over 72 hours (Supplemental Figure 1). […] Briefly, promastigotes of a known cell density were resuspended in RPMI media (with 10% FBS, 1% P/S and 0.05 mM β-mercaptoethanol) and incubated with adhered THP-1 cells over 18 hours. After infection, cells were washed three times with fresh media to remove extracellular promastigotes.
Infected macrophages were then treated with compounds solubilized in DMSO ranging from 0.1-10 μM in concentrations. After 72 hours of treatment, the viability of the amastigotes within macrophages was determined using Promega firefly luminescence assay (Cat E1500) or Pierce Renilla luciferase assay (Cat 16166) for L. donovani and L. mexicana strains, respectively. Briefly, media was removed, and cells were lysed with the assay lysis buffer. The luciferase substrate was then incubated with the lysed cells for 10 min at room temperature and luminescence of live Leishmania was measured in a white opaque 96 well plate using a Biotek plate reader.

[2] = system: THP-1 macrophages; assay: Effect of compounds on host cell viability (MTT); type: cell-based; conditions: read-out: 24h LC50; THP1 macrophages, 24-hour incubation, MTT assay (Supplemental Table 2)
In short: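 THP-1 cells were differentiated with 150 nM PMA for 72 h, then exposed to compounds at 1–50 μM for 24 h; selected compounds were also run at 1–300 μM for 72 h. MTT at 0.5 mg/mL was added for 2 h at 37 °C, and formazan absorbance was read at 560 nm minus 670 nm.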

FC(F)(F)c1ccc(-c2ccc(-c3cc(C(F)(F)F)nn3-c3cccc(Br)c3)cc2)cc1 [Compound 190] was tested, and the IC50 [1] was > 10 µM and the CC50 [2] was > 50 µM.
FC(F)(F)c1cc(-c2ccc(Cl)c(Cl)c2)n(-c2ccc(Br)cc2)n1 [Compound 198] was tested, and the IC50 [1] was > 10 µM and the CC50 [2] was > 50 µM.
NCCCCCOc1ccc(CN2CCC(Oc3ccc(-n4nc(C(F)(F)F)cc4C4CCCCC4)cc3)CC2)cc1 [Compound 432] showed an IC50 [1] of 2.9 µM and a CC50 [2] of 5.6 µM.
Work on FC(F)(F)c1cc(C2CC2)n(-c2ccc(NC3CCNC3)cc2)n1 (stereo not drawn) [Compound 272] yielded an IC50 [1] of 5.6 µM and a CC50 [2] of 17.2 µM.
In the case of NS(=O)(=O)c1ccc(-n2nc(C(F)(F)F)cc2-c2ccc(-c3ccc(C(F)(F)F)cc3)cc2)cc1 [Compound 188], the IC50 [1] is reported as 3.1 µM and the CC50 [2] is reported as 9 µM.
In the case of FC(F)(F)c1ccc(-c2ccc(-c3cc(C(F)(F)F)nn3-c3ccc(NCCCCl)cc3)cc2)cc1 [Compound 67], the IC50 [1] is reported as > 10 µM and the CC50 [2] is reported as > 50 µM.
With FC(F)(F)c1cc(-c2ccncc2)n(-c2ccc(Br)cc2)n1 [Compound 213] the IC50 [1] was > 10 µM and the CC50 [2] was > 50 µM.
FC(F)(F)c1cc(-c2ccc(-c3ccccc3)cc2)n(-c2ccc(NCCc3ccccc3)cc2)n1 [Compound 62] was tested, and the IC50 [1] was > 10 µM and the CC50 [2] was > 50 µM.
With NC1CCN(c2ccc(-n3nc(C(F)(F)F)cc3-c3ccc(-c4ccc(C(F)(F)F)cc4)cc3)cc2)CC1 [Compound 73] the IC50 [1] was 2.7 µM and the CC50 [2] was 4.8 µM.
Work on CCCNC1CN(c2ccc(-n3nc(C(F)(F)F)cc3-c3ccc(-c4ccc(C(F)(F)F)cc4)cc3)cc2)C1 [Compound 54] yielded an IC50 [1] of 2.4 µM and a CC50 [2] of 9.9 µM.
FC(F)(F)c1cc(-c2ccccc2C(F)(F)F)n(-c2ccc(Br)cc2)n1 [Compound 255] was tested, and the IC50 [1] was > 10 µM and the CC50 [2] was > 50 µM.
With O=C(Nc1ccc(-n2cc(C(F)(F)F)nc2-c2ccc(-c3ccccc3)cc2)cc1)c1ccccc1 [Compound 88] the IC50 [1] was > 10 µM and the CC50 [2] was > 50 µM.
With FC(F)(F)c1cc(-c2cccnc2)n(-c2ccc(NC3CCNC3)cc2)n1 (stereo not drawn) [Compound 250] the IC50 [1] was > 10 µM and the CC50 [2] was > 50 µM.
In the case of O=C(Nc1ccc(-n2cc(C(F)(F)F)nc2-c2ccc(-c3ccccc3)cc2)cc1)C1CCCN1Cc1ccccc1 (stereo not drawn) [Compound 85], the IC50 [1] is reported as > 10 µM and the CC50 [2] is reported as > 50 µM.
Compound O=C1CN(c2ccc(-n3cc(C(F)(F)F)nc3-c3ccc(C(F)(F)F)cc3)cc2)CCN1 [Compound 332] has an IC50 [1] of 8 µM and a CC50 [2] of 31.2 µM.
FC(F)(F)c1ccc(-c2ccc(-c3nc(C(F)(F)F)cn3-c3ccc(NC4CCNC4)cc3)cc2)cc1 (stereo not drawn) [Compound 246] showed an IC50 [1] of 3.8 µM and a CC50 [2] of 5.5 µM.
NC1CCN(c2ccc(-n3nncc3-c3ccc(C(F)(F)F)cc3)cc2)C1 (stereo not drawn) [Compound 204] was tested, and the IC50 [1] was > 10 µM and the CC50 [2] was 37.2 µM.
Compound NC1CCN(c2ccc(-n3nc(C(F)(F)F)cc3-c3ccc(-c4ccc(S(F)(F)(F)(F)F)cc4)cc3)cc2)C1 (stereo not drawn) [Compound 106] has an IC50 [1] of 8.1 µM and a CC50 [2] of 6 µM.
In the case of FC(F)(F)Oc1ccc(-n2nc(C(F)(F)F)cc2-c2ccc(-c3ccc(C(F)(F)F)cc3)cc2)cc1 [Compound 186], the IC50 [1] is reported as > 10 µM and the CC50 [2] is reported as > 50 µM.
In the case of NCC(=O)NC1CCN(c2ccc(-n3nc(C(F)(F)F)cc3-c3ccc(-c4ccc(C(F)(F)F)cc4)cc3)cc2)C1 (stereo not drawn) [Compound 119], the IC50 [1] is reported as > 10 µM and the CC50 [2] is reported as 37.2 µM.
With FC(F)(F)c1ccc(-c2ccc(-c3cc(C(F)(F)F)nn3-c3ccc(NCCCCOc4ccccc4)cc3)cc2)cc1 [Compound 68] the IC50 [1] was > 10 µM and the CC50 [2] was 34.7 µM.
C#CCCCC(=O)NC1CCN(c2ccc(-n3nc(C(F)(F)F)cc3-c3ccc(-c4ccc(C(F)(F)F)cc4)cc3)cc2)CC1 [Compound 92] was tested, and the IC50 [1] was > 10 µM and the CC50 [2] was 14.7 µM.
In the case of N#Cc1ccc(-n2cc(C(F)(F)F)nc2-c2ccc(-c3ccccc3)cc2)cc1 [Compound 180], the IC50 [1] is reported as > 10 µM and the CC50 [2] is reported as > 50 µM.
With FC(F)(F)c1cc(C2CCCCC2)n(-c2ccc(NC3CN(Cc4ccccc4)C3)cc2)n1 [Compound 395] the IC50 [1] was 7.6 µM and the CC50 [2] was 37.4 µM.
For FC(F)(F)c1ccc(-c2ccc(-c3nc(C(F)(F)F)c[nH]3)cc2)cc1 [Compound 75], the IC50 [1] was > 10 µM and the CC50 [2] was 48.8 µM.
FC(F)(F)c1cc(C2CCCCC2)n(-c2ccc(Br)cc2)n1 [Compound 215] was tested, and the IC50 [1] was > 10 µM and the CC50 [2] was > 50 µM.
FC(F)(F)c1ccc(-c2ccc(-c3cc(C(F)(F)F)nn3-c3ccc(OC4CCNC4)cc3)cc2)cc1 (stereo not drawn) [Compound 144] was tested, and the IC50 [1] was > 10 µM and the CC50 [2] was 5.4 µM.
In the case of Fc1cccc(CN2CCC(Nc3ccc(-n4cc(C(F)(F)F)nc4-c4ccc(-c5ccc(C(F)(F)F)cc5)cc4)cc3)C2)c1 (stereo not drawn) [Compound 243], the IC50 [1] is reported as > 10 µM and the CC50 [2] is reported as > 50 µM.
Compound CC(=O)NCCCNC1CCN(c2ccc(-n3nc(C(F)(F)F)cc3C3CCCCC3)cc2)CC1 [Compound 421] has an IC50 [1] of 1.5 µM and a CC50 [2] of 19 µM.
FC(F)(F)c1cc(C2CCCCC2)n(-c2ccc(NC3CCN(Cc4ccccc4)CC3)cc2)n1 [Compound 321] was tested, and the IC50 [1] was 5.1 µM and the CC50 [2] was 23.9 µM.
N#Cc1ccc(-n2cc(C(F)(F)F)nc2-c2ccc(-c3ccc(C(F)(F)F)cc3)cc2)cc1 [Compound 177] was tested, and the IC50 [1] was > 10 µM and the CC50 [2] was > 50 µM.
FC(F)(F)c1cc(-c2ccc(C#CC3CC3)cc2)n(-c2ccc(N3CCNCC3)cc2)n1 [Compound 42] gave an IC50 [1] of 4.2 µM and a CC50 [2] of 0.7 µM.
With COc1ccc(-n2nc(C(F)(F)F)cc2-c2ccc(-c3ccc(C(F)(F)F)cc3)cc2)c(C)c1 [Compound 187] the IC50 [1] was > 10 µM and the CC50 [2] was > 50 µM.
With CC(C)C#Cc1ccc(-c2cc(C(F)(F)F)nn2-c2ccc([N+](=O)[O-])cc2)cc1 [Compound 94] the IC50 [1] was > 10 µM and the CC50 [2] was 29 µM.
Nc1ccc(-c2cc(C(F)(F)F)nn2-c2ccc(-c3ccc(C(F)(F)F)cc3)cc2)cc1 [Compound 152] was tested, and the IC50 [1] was > 10 µM and the CC50 [2] was 43.6 µM.
Work on N#Cc1ccc(CN2CCC(Nc3ccc(-n4nc(C(F)(F)F)cc4C4CCCCC4)cc3)CC2)cc1 [Compound 323] yielded an IC50 [1] of 8.9 µM and a CC50 [2] of 28.3 µM.
Compound Oc1ccc(CN2CCC(Oc3ccc(-n4nc(C(F)(F)F)cc4C4CCCCC4)cc3)C2)cc1 (stereo not drawn) [Compound 377] has an IC50 [1] of 8.3 µM and a CC50 [2] of 14.6 µM.
For FC(F)(F)c1cc(C2CCCCC2)n(-c2ccc(N3CCC(NCc4ccccc4)C3)cc2)n1 (stereo not drawn) [Compound 364], the IC50 [1] was 6.8 µM and the CC50 [2] was 31.1 µM.
In the case of Cc1nn(-c2ccc(Br)cc2)c2ccccc12 [Compound 132], the IC50 [1] is reported as > 10 µM and the CC50 [2] is reported as > 50 µM.
In the case of FC(F)(F)c1cc(-c2ccco2)n(-c2ccc(NC3CCNC3)cc2)n1 (stereo not drawn) [Compound 273], the IC50 [1] is reported as 4.9 µM and the CC50 [2] is reported as 15.6 µM.
FC(F)(F)c1ccc(-c2ccc(-c3cc(C(F)(F)F)nn3-c3ccc(N4CCC(NCc5ccc(Cl)c(C(F)(F)F)c5)CC4)cc3)cc2)cc1 [Compound 120] was tested, and the IC50 [1] was > 10 µM and the CC50 [2] was > 50 µM.
For FC(F)(F)c1cc(-c2ccc(-c3ccc(S(F)(F)(F)(F)F)cc3)cc2)n(-c2ccc(Br)cc2)n1 [Compound 105], the IC50 [1] was > 10 µM and the CC50 [2] was > 50 µM.
For NC1CCN(c2ccc(-n3nncc3-c3ccc(-c4ccc(C(F)(F)F)cc4)cc3)cc2)C1 (stereo not drawn) [Compound 137], the IC50 [1] was 4.4 µM and the CC50 [2] was 7.3 µM.
In the case of NC1CCN(c2ccc(-n3nc(C(F)(F)F)cc3-c3ccc(F)cc3)cc2)C1 (stereo not drawn) [Compound 248], the IC50 [1] is reported as 2.6 µM and the CC50 [2] is reported as 14.4 µM.
CNS(=O)(=O)Cc1ccc(-n2nc(C(F)(F)F)cc2-c2ccc(-c3ccc(C(F)(F)F)cc3)cc2)cc1 [Compound 191] was tested, and the IC50 [1] was > 10 µM and the CC50 [2] was 12 µM.
Work on FC(F)(F)c1cc(-c2ccc(-c3cccs3)cc2)n(-c2ccc(N3CCNCC3)cc2)n1 [Compound 209] yielded an IC50 [1] of 3 µM and a CC50 [2] of 10.2 µM.
In the case of CS(=O)(=O)c1ccc(-n2nc(C(F)(F)F)cc2-c2ccc(-c3ccccc3)cc2)cc1 [Compound 174], the IC50 [1] is reported as > 10 µM and the CC50 [2] is reported as > 50 µM.
With N#Cc1ccc(CN2CCC(Oc3ccc(-n4nc(C(F)(F)F)cc4C4CCCCC4)cc3)CC2)cc1 [Compound 373] the IC50 [1] was 7 µM and the CC50 [2] was > 50 µM.
O=S(=O)(c1ccc(-n2cc(C(F)(F)F)nc2-c2ccc(-c3ccc(C(F)(F)F)cc3)cc2)cc1)C(F)(F)F [Compound 244] was tested, and the IC50 [1] was > 10 µM and the CC50 [2] was > 50 µM.
Fc1cccc(CN2CCC(Nc3ccc(-n4nc(C(F)(F)F)cc4C4CCCCC4)cc3)C2)c1 (stereo not drawn) [Compound 357] was tested, and the IC50 [1] was 1.2 µM and the CC50 [2] was 13.1 µM.
Compound CC(=O)NCCNC1CCN(c2ccc(-n3nc(C(F)(F)F)cc3C3CCCCC3)cc2)CC1 [Compound 419] has an IC50 [1] of 2.7 µM and a CC50 [2] of 21.6 µM.
For CC(C)(C)OC(=O)NC1CCN(c2ccc(-n3nc(C(F)(F)F)cc3-c3ccc(-c4ccc(C(F)(F)F)cc4)cc3)cc2)C1 (stereo not drawn) [Compound 128], the IC50 [1] was > 10 µM and the CC50 [2] was > 50 µM.
In the case of Fc1cccc(CN2CCN(c3ccc(-n4nc(C(F)(F)F)cc4-c4ccc(-c5ccc(C(F)(F)F)cc5)cc4)cc3)CC2)c1 [Compound 222], the IC50 [1] is reported as > 10 µM and the CC50 [2] is reported as > 50 µM.
With FC(F)(F)c1ccc(-c2ccc(-c3cc(C(F)(F)F)nn3-c3ccc(N4CCC(NC5CCCCCC5)C4)cc3)cc2)cc1 (stereo not drawn) [Compound 69] the IC50 [1] was 5.5 µM and the CC50 [2] was 12.4 µM.
